Results reported in patent US11844841B2, “Dosing regimens and related compositions and methods” (Apellis Pharmaceuticals, Inc., priority 2017, dated 2023).

Columns and labels:
[1] = test system: RBCs from a patient with PNH; test: Modified Ham's test with flow cytometry for CD59 and C3d (Example 18); type: cell-based, human
Procedure: A modified Ham's test was performed to assess the ability of compstatin analogs to protect PNH RBCs from complement-mediated lysis. […] Exposure to heat inactivated human serum was used as a control representing no significant complement-mediated lysis as complement is inactivated by heat. Exposure to acidified human serum and magnesium (Mg^2+) in the absence of complement inhibitors (pane labeled Mg^2+) was used as a control representing maximum lysis.
Following incubation, cells were stained with antibodies to CD59 and C3d. CD59 level permitted the classification of the PNH RBCs as Type I, Type II, or Type III. Staining for C3d, a product of C3 activation and cleavage was used as a marker of C3 and C3 activation product deposition (loading). Flow cytometric analysis was performed to assess CD59 and C3d on RBC surfaces and to quantify the percentages of Type I, Type II, and Type III cells present in various samples.
Type I cells (shown in orange in FIG. 12) have normal levels of CD59. Type III cells (shown in blue in FIG. 12) have essentially no detectable CD59. […] Type II cells (shown in purple in FIG. 12) have reduced levels of CD59 as compared with normal or Type I cells and have an intermediate sensitivity to complement-mediated lysis. […] Type II cells may eventually lyse in the presence of activated complement but can accumulate a considerable amount of C3 activation products such as C3d before they do so. Reduction in or absence of lysis may be evidenced by increased levels of C3 or C3 activation products on Type II cells, as is evident by comparing the level of C3d on Type II cells in the no lysis panel with the level of C3d on Type II cells in the max. lysis panel in both FIGS. 12(A) and 12(B). […] A shift in the relative percentages of Type I, II, and III cells from the percentages present in the max. lysis control panels (Mg^2+) towards the percentages present in the no lysis control panels (heat inactivated serum) is indicative of protection against complement-mediated lysis. The column labeled % C′3 in Table 11 refers to the percentage of cells deemed “positive” for presence of C3 and C3 activation products (“C3 loading”).

PNH RBCs = test: Modified Ham's assay, comparison with Soliris (Example 19); type: cell-based, human; details: CA28-2GS-BF 50 ug/ml
Procedure: Flow cytometry was performed after antibody staining using antibodies against CD59 and C3d. In this figure, quadrant 1 (Q1) and quadrant 3 (Q3) represent Type III cells. Quadrant 2 (Q2) and quadrant 4 (Q4) represent Types I and II cells. Q1 and Q2 represent cells with a significant and abnormally high amount of C3 activation product (e.g., C3d) deposition. Q3 and Q4 represent cells without significant C3d deposition or somewhat elevated level (right portion of Q4) but less so than Q2 cells.

[2] = test system: complement activation via the classical pathway; test: Classical complement inhibition assay (C3b deposition ELISA); type: biochemical, human
Procedure: Inhibitory activity of the synthesized compounds was assessed by measuring the effect of the compounds on complement activation via the classical pathway using a standard complement inhibition assay. The protocol measures C3b deposition in an ELISA format. C3b deposition monitored using this method is generated through complement activated by the classical pathway. Briefly, 96-well plates are coated with BSA. Human plasma, chicken ovalbumin (OVA), polyclonal anti-OVA antibodies and compound being tested (referred to as “drug”) are added and incubated, followed by addition of Anti-human C3 HRP-conjugated antibody. After an additional incubation, substrate is added and signal detected. Details of the protocol are as follows:
Protocol for Classical Complement Inhibition Assay
• Ninety-six well plate (polystyrene plate, Thermo Scientific, 9205) • Chicken OVA (Sigma A5503-5G) • Rabbit anti-chicken OVA (Abcam ab1221) • Blocking buffer (Startingblock buffer, Thermo Scientific 37538) • Veronal Buffer (5× concentration, Lonza 12-624E) • Human plasma (collected with Lepirudin at 50 ug/ml final concentration) • Goat anti-human C3 HRP-conjugated Ab (MP Biomedicals, 55237) • Tween-20 Wash Buffer (0.05% Tween 20-PBS buffer) • TMB (Peroxidase substrate, BD 555214)—1:1 mixture of BD 51-2607KC and 51-2606KC. • 1M H2SO4 Protocol: • 1. […]
Data was analyzed using GraphPad Prism5 software. […]

[3] = Phase 1 single and multiple ascending dose trial of inhaled (nebulized) CA28 in healthy volunteers; type: in vivo, human; details: for adverse event: one subject
Procedure: In the single ascending dose part of the trial, 16 subjects were enrolled in four cohorts of four subjects each.
Four subjects were enrolled in the first cohort of the multiple ascending dose part of the trial. These subjects were to receive 14 consecutive days of treatment with a 60 mg/day dose of the drug. […] The trial was paused and subsequently resumed, with subjects receiving 30 mg/day. […] The trial was then terminated.

[4] = Inhalation studies, single dose and repeated dosing; type: in vivo, cynomolgus monkey
Procedure: (§1) Inhalation studies of single dose or repeated dosing were conducted in dog and cynomolgus monkey. […] These doses were 25 mg/kg/d in a 7 day repeated dose study in the dog, 80 mg/kg in a single dose study in the monkey, and 30 mg/kg/day in a 14 day repeated dose in the monkey.

[5] = Inhalation study, repeated dosing; details: in vivo, inhaled or intranasal, 25 mg/kg/d; 7 day repeated dose study in the dog
Procedure: as §1

Molecule: CA28-2GS-BF: Bifunctional linear 40 kD PEG of the GS (glutaryl NHS ester) type coupled to two CA28-AEEAc-Lys moieties
- Type I % C′3 ([1]; compound at 20 micrograms/ml): 2.18%
- Type II % C′3 ([1]; compound at 20 micrograms/ml): 12.28%
- Type III % C′3 ([1]; compound at 20 micrograms/ml): 0.99%
- Type I % C′3 ([1]; compound at 40 micrograms/ml): 2.84%
- Type III % C′3 ([1]; compound at 40 micrograms/ml): 1.21%
- Type I % C′3 ([1]; compound at 50 micrograms/ml): 2.26%
- Type III % C′3 ([1]; compound at 50 micrograms/ml): 1.29%
- Type I % C′3 ([1]; compound at 60 micrograms/ml): 2.05%
- Type II % C′3 ([1]; compound at 60 micrograms/ml): 13.04%
- Type III % C′3 ([1]; compound at 60 micrograms/ml): 1.44%
- Type I % C′3 ([1]; compound at 100 micrograms/ml): 0.07%
- Type II % C′3 ([1]; compound at 100 micrograms/ml): 0.88%
- Type III % C′3 ([1]; compound at 100 micrograms/ml): 0.11%
- Type I % C′3 ([1]; compound at 200 micrograms/ml): 0.02%
- Type II % C′3 ([1]; compound at 200 micrograms/ml): 0.26%
- Type III % C′3 ([1]; compound at 200 micrograms/ml): 0.02%
- Type I % C′3 ([1]; compound at 500 micrograms/ml): 0.04%
- Type II % C′3 ([1]; compound at 500 micrograms/ml): 0.3%
- Type III % C′3 ([1]; compound at 500 micrograms/ml): 0.05%
- protection of PNH RBCs from complement-mediated lysis ([1]; in the presence of 100 ug/ml or more compstatin analog): complete protection from complement-mediated lysis
- deposition of C3d on PNH RBCs (PNH RBCs): essentially no deposition of C3d
- complement inhibiting activity, comparison in words [2]: virtually identical

Molecule: CC[C@H](C)[C@H](NC(C)=O)C(=O)N[C@H]1CSSC[C@@H](C(=O)N[C@H](C(N)=O)[C@@H](C)O)NC(=O)[C@H](CCCNC(=N)N)NC(=O)[C@H](Cc2cnc[nH]2)NC(=O)[C@H](C)NC(=O)CNC(=O)[C@H](Cc2c[nH]c3ccccc23)NC(=O)[C@H](CC(=O)O)NC(=O)[C@H](CCC(N)=O)NC(=O)[C@H](Cc2cn(C)c3ccccc23)NC(=O)[C@H](C(C)C)NC1=O [CA28]
- adverse event ([3]; 30 mg/day inhaled, after 10 days of treatment): signs and symptoms consistent with a potential bacterial infection
- adverse event ([3]; 60 mg/day inhaled, after nine days of treatment): signs and symptoms consistent with a potential bacterial infection
- safety and tolerability ([3]; single inhaled doses 20, 60, 150 or 350 mg): well tolerated and no serious adverse events were reported
- highest inhaled dose tested, no drug-related findings ([4]; 14 day repeated dose in the monkey): 30 mg/kg/day
- NOAEL ([4]; cynomolgus monkey, in vivo, inhaled or intranasal, 80 mg/kg, single dose study in the monkey): 80 mg/kg
- NOAEL at 168 h [5]: 25 mg/kg/day
